According to ChEMBL document CHEMBL1201862, “PubChem BioAssay data set” (2004):
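Briefly, cells in 96-well plates were exposed to five compound concentrations for 48 h, and endpoints were estimated by linear interpolation. GI50 is the concentration that inhibits growth by half.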 Active and inactive are the calls of the source. Rule as the data show it: active = GI50 up to about 1.1 µM and inactive = higher.

What was measured:
Assay in all cases: NCI anticancer screen, dose series, 48 h
A498 = tested on: A498
ACHN = tested on: ACHN
CAKI-1 = tested on: CAKI-1
EKVX = tested on: EKVX
HCT-116 = tested on: HCT-116
HL-60 = tested on: HL-60
K562 = tested on: K562
LOX IMVI = tested on: LOX IMVI
MDA-MB-435 = tested on: MDA-MB-435
MDA-N = tested on: MDA-N
NCI-H23 = tested on: NCI-H23
OVCAR-3 = tested on: OVCAR-3
OVCAR-8 = tested on: OVCAR-8
PC-3 = tested on: PC-3
RXF 393 = tested on: RXF 393
SF-295 = tested on: SF-295
SK-MEL-5 = tested on: SK-MEL-5
HOP-62 = tested on: HOP-62
SK-MEL-28 = tested on: SK-MEL-28
T47D = tested on: T47D

| Compound | GI50 (A498) | GI50 (ACHN) | GI50 (CAKI-1) | GI50 (EKVX) | GI50 (HCT-116) | GI50 (HL-60) | GI50 (K562) | GI50 (LOX IMVI) | GI50 (MDA-MB-435) | GI50 (MDA-N) | GI50 (NCI-H23) | GI50 (OVCAR-3) | GI50 (OVCAR-8) | GI50 (PC-3) | GI50 (RXF 393) | GI50 (SF-295) | GI50 (SK-MEL-5) | GI50 (HOP-62) | GI50 (SK-MEL-28) | GI50 (T47D) |
| --- | --- | --- | --- | --- | --- | --- | --- | --- | --- | --- | --- | --- | --- | --- | --- | --- | --- | --- | --- | --- |
| O=CC1=C(C(=O)OC(c2ccccc2)c2ccccc2)N2C(=O)[C@@H](NC(=O)Cc3cccs3)[C@H]2SC1 | > 100 µM (inactive) | > 100 µM (inactive) | > 100 µM (inactive) | > 100 µM (inactive) | 83 µM (inactive) | 23.3 µM (inactive) | > 100 µM (inactive) | > 100 µM (inactive) | 85.5 µM (inactive) | > 100 µM (inactive) | 73.6 µM (inactive) | > 100 µM (inactive) | > 100 µM (inactive) | > 100 µM (inactive) | > 100 µM (inactive) | > 100 µM (inactive) | > 100 µM (inactive) | – | – | – |
| O=C1/C(=C/c2ccc([N+](=O)[O-])cc2)CCCc2ccccc21 | – | > 100 µM (inactive) | > 100 µM (inactive) | 48.6 µM (inactive) | > 100 µM (inactive) | > 100 µM (inactive) | > 100 µM (inactive) | > 100 µM (inactive) | > 100 µM (inactive) | > 100 µM (inactive) | > 100 µM (inactive) | > 100 µM (inactive) | > 100 µM (inactive) | > 100 µM (inactive) | – | 63.5 µM (inactive) | – | 54.3 µM (inactive) | > 100 µM (inactive) | – |
| N#CI1OC(C(F)(F)F)(C(F)(F)F)c2ccccc21 | 37.4 µM (inactive) | 18.2 µM (inactive) | 14.1 µM (inactive) | 14.6 µM (inactive) | 16.4 µM (inactive) | 5.77 µM (inactive) | 12.1 µM (inactive) | 18.8 µM (inactive) | 17.8 µM (inactive) | – | 18.6 µM (inactive) | 15.7 µM (inactive) | 16.3 µM (inactive) | 15.8 µM (inactive) | 16.8 µM (inactive) | 45.9 µM (inactive) | 17.5 µM (inactive) | 57.5 µM (inactive) | 15.5 µM (inactive) | 18.1 µM (inactive) |
| O=C(/C=C/c1ccccc1)CCC1C(=O)NC(=S)NC1=O | > 100 µM (inactive) | > 100 µM (inactive) | 26.5 µM (inactive) | – | > 100 µM (inactive) | – | > 100 µM (inactive) | > 100 µM (inactive) | > 100 µM (inactive) | – | > 100 µM (inactive) | > 100 µM (inactive) | > 100 µM (inactive) | > 100 µM (inactive) | > 100 µM (inactive) | > 100 µM (inactive) | > 100 µM (inactive) | – | > 100 µM (inactive) | > 100 µM (inactive) |
| CC(=O)Oc1cc(Cl)c(C)c2c1[C@H]1CC[C@]3(C)[C@@H](OC(C)=O)CC[C@H]3[C@@H]1CC2 | > 100 µM (inactive) | > 100 µM (inactive) | – | > 100 µM (inactive) | 54.6 µM (inactive) | 53.6 µM (inactive) | 78.5 µM (inactive) | > 100 µM (inactive) | > 100 µM (inactive) | > 100 µM (inactive) | > 100 µM (inactive) | > 100 µM (inactive) | > 100 µM (inactive) | – | 74.8 µM (inactive) | > 100 µM (inactive) | > 100 µM (inactive) | > 100 µM (inactive) | > 100 µM (inactive) | 83.2 µM (inactive) |
| O=C1CC(c2ccccc2Cl)Oc2ccccc21 (stereo unspecified) | > 100 µM (inactive) | – | 40.9 µM (inactive) | 14 µM (inactive) | 45 µM (inactive) | 32.4 µM (inactive) | 17.3 µM (inactive) | 40.4 µM (inactive) | 18.5 µM (inactive) | – | – | – | 26.4 µM (inactive) | 31.3 µM (inactive) | 17.2 µM (inactive) | 40.6 µM (inactive) | 32.8 µM (inactive) | 25.9 µM (inactive) | > 100 µM (inactive) | 43 µM (inactive) |
| CSc1nc(-c2cc3c(c(SC)n2)CCCCC3)cc2c1CCCCC2 | > 100 µM (inactive) | > 100 µM (inactive) | > 100 µM (inactive) | > 100 µM (inactive) | > 100 µM (inactive) | > 100 µM (inactive) | > 100 µM (inactive) | > 100 µM (inactive) | > 100 µM (inactive) | > 100 µM (inactive) | > 100 µM (inactive) | > 100 µM (inactive) | > 100 µM (inactive) | > 100 µM (inactive) | > 100 µM (inactive) | > 100 µM (inactive) | > 100 µM (inactive) | 56.9 µM (inactive) | > 100 µM (inactive) | – |
| NC(=S)N/N=C1\NC(=O)/C(=C/c2ccc3c(c2)OCO3)S1 | 14.3 µM (inactive) | 32.1 µM (inactive) | 25.3 µM (inactive) | 21.6 µM (inactive) | 29.1 µM (inactive) | 20.6 µM (inactive) | – | 28.3 µM (inactive) | 27.1 µM (inactive) | 27.5 µM (inactive) | 22.9 µM (inactive) | 19.2 µM (inactive) | 24.8 µM (inactive) | – | 21.1 µM (inactive) | 36.5 µM (inactive) | 16.3 µM (inactive) | 20.9 µM (inactive) | 24 µM (inactive) | 19.3 µM (inactive) |
| COc1cc(C2C3=C(COC3=O)OC(C)(C)Oc3cc4c(cc32)OCO4)cc(OC)c1OC (stereo unspecified) | 0.281 µM (active) | 0.682 µM (active) | 2.27 µM (inactive) | 0.366 µM (active) | 0.318 µM (active) | 0.236 µM (active) | 0.353 µM (active) | 0.331 µM (active) | 0.167 µM (active) | 0.212 µM (active) | 0.384 µM (active) | 0.447 µM (active) | 0.342 µM (active) | 0.344 µM (active) | 0.259 µM (active) | 0.222 µM (active) | 0.348 µM (active) | 0.509 µM (active) | 0.296 µM (active) | – |
| N=c1oc2cc(O)ccc2cc1C(=O)Nc1ccccn1 | 24.7 µM (inactive) | 23.4 µM (inactive) | 51.9 µM (inactive) | 40.2 µM (inactive) | 56.1 µM (inactive) | 30.5 µM (inactive) | 26.5 µM (inactive) | 34.4 µM (inactive) | 44.5 µM (inactive) | – | 80.9 µM (inactive) | 72.4 µM (inactive) | 32.2 µM (inactive) | 40.1 µM (inactive) | 26.6 µM (inactive) | > 100 µM (inactive) | 42.3 µM (inactive) | > 100 µM (inactive) | 76.7 µM (inactive) | 32.7 µM (inactive) |
| O=C1CC(C(=O)N2CCCCC2)n2c(=O)n(-c3ccccc3)c(=O)n2C1 (stereo unspecified) | – | > 100 µM (inactive) | > 100 µM (inactive) | > 100 µM (inactive) | > 100 µM (inactive) | – | – | > 100 µM (inactive) | – | > 100 µM (inactive) | > 100 µM (inactive) | > 100 µM (inactive) | > 100 µM (inactive) | > 100 µM (inactive) | > 100 µM (inactive) | > 100 µM (inactive) | > 100 µM (inactive) | > 100 µM (inactive) | – | – |
